{
  "source": "patent US8367401B2",
  "about": "“Replication competent hepatitis C virus and methods of use” (Board of Regents, The University of Texas System, priority 1999, dated 2013)",
  "key": {"[1]": {"test_system": "Ntat2ANeo(RG) replicon (HCV-N) in En5-3 cells", "experiment": "Interferon suppression of SEAP secretion, Ntat2ANeo(RG) replicon cell line", "type": "cell-based, hepatitis C virus", "experimental": "(§1) Alkaline phosphatase assay. […] The luminescent signal was read using a TD-20/20 Luminometer (Turner Designs, Inc.). In most time course experiments, the culture medium was replaced every 24 hrs. Thus, the SEAP activity measured in these fluids reflected the daily production of SEAP by the cells.\n(§2) Interferon treatment of cell cultures. Selected replicon-bearing cell lines were seeded into 12 well plates. The media was replaced 24 hrs later with fresh, G418 free media containing various concentrations of recombinant interferon-α2B ranging from 0 to 100 units/ml. The medium was subsequently completely removed every 24 hrs, the cells washed, and refed with fresh interferon-containing media. SEAP activity was measured in the media removed from the cells as described above.\n(§3) Interferon suppression of HCV RNA replication. […] Recently seeded cell cultures were fed with media containing various concentrations of recombinant interferon-α2B ranging from 0 to 100 units/ml. The medium was subsequently removed completely at 24 hr intervals, and the cells were washed thoroughly and refed with fresh interferon-containing media. […] The decline in intracellular RNA preceded the decreases in SEAP secretion by approximately 24 hrs, most likely reflecting the kinetic delay in tat signaling of SEAP secretion."}, "[2]": {"test_system": "Et2AN cell line", "experiment": "SEAP secretion by Et2AN control cell line (tat2ANeo under EMCV IRES, no replicon)", "type": "cell-based", "from_the_text": "as §1\nThis permits serial measurements of the kinetics of RNA amplification in single cultures of cells (FIG. 21). One potential drawback of this system is that suppression of SEAP activity by candidate antiviral compounds could result from inhibition of the activity of either the 2A protease or tat, or even (as with other published dicistronic HCV replicons) the EMCV IRES. To address this issue, we established a stably transformed cell line that constitutively expresses the tat2ANeo polyprotein under the translational control of the EMCV IRES. This cell line (Et2AN) was established by transfection of pEt2AN DNA (FIG. 16) into En5-3 cells, followed by selection with G418."}, "[3]": {"test_system": "Btat2ANeo(SI) replicon (Con1 HCV) in En5-3 cells", "experiment": "Interferon suppression of SEAP secretion, Btat2ANeo(SI) replicon cell line", "type": "cell-based, hepatitis C virus", "experimental": "as §1, §2, §3"}, "[4]": {"test_system": "En5-3 cells", "experiment": "SEAP expression from En5-3 cells without replicon", "type": "cell-based", "conditions": "interferon treatment", "from_the_text": "FIG. 22. Suppression of HCV replicon amplification by interferon-α2b. (A) SEAP activity secreted from cells supporting replication of Btat2ANeo(SI) over successive 24 hr intervals following addition of interferon to the medium. (B) SEAP secretion from Ntat2ANeo(RG) cells. Interferon concentrations were: (*) 100 units/ml; (X) 10 units/ml; (▴) 1 unit/ml; (▪) no interferon. SEAP expression from En5-3 cells without interferon treatment was also shown (♦). SEAP expression from En5-3 cells was not affected by interferon treatment.\nas §1"}, "[5]": {"conditions": "highest concentration of interferon tested, 100 units/ml"}, "[6]": {"conditions": "interferon 0 to 100 units/ml, media replaced at 24 hr intervals, stable G418 resistant cell clone"}},
  "data": [
    {"substance": "interferon-α2b", "values": [
      {"measurement": "cellular cytotoxicity", "setting": "[1]; 100 units/ml", "value": "absence of demonstrable cellular cytotoxicity"},
      {"measurement": "SEAP expression over time", "setting": "[1]; [5]", "value": "SEAP expression declined over time"},
      {"measurement": "SEAP secretion", "setting": "[1]; [6]", "value": "dose-dependent inhibition of SEAP secretion"},
      {"measurement": "suppression of the secretion of SEAP", "setting": "[2]; comparable concentrations of interferon", "value": "no suppression"},
      {"measurement": "nonspecific toxicity", "setting": "[2]; concentrations of interferon tested", "value": "absence of nonspecific toxicity"},
      {"measurement": "cellular cytotoxicity", "setting": "[3]; 100 units/ml", "value": "absence of demonstrable cellular cytotoxicity"},
      {"measurement": "SEAP expression over time", "setting": "[3]; [5]", "value": "SEAP expression declined over time"},
      {"measurement": "SEAP secretion", "setting": "[3]; [6]", "value": "dose-dependent inhibition of SEAP secretion"},
      {"measurement": "SEAP expression", "setting": "[4]", "value": "not affected"}
    ]}
  ]
}
